Assay results published in PMC5748279, “Novel Antitubercular 6-Dialkylaminopyrimidine Carboxamides from Phenotypic Whole-Cell High Throughput Screening of a SoftFocus Library: Structure–Activity Relationship and Target Identification Studies” (Journal of Medicinal Chemistry, 2017).
“Also recorded” adds a separate entry of the source.

Legend:
[1] = test system: PrecA-LUX reporter (genotoxic compounds); assay type: cell-based; conditions: luminescence over 7 days, CIPRO control
[2] = test system: cytochrome bd oxidase knockout mutant strain (cydKO); assay type: cell-based; conditions: 7H9 GLU ADC medium
[3] = test system: PiniB-LUX reporter (Mtb cell wall biosynthesis); assay type: cell-based; conditions: luminescence over 7 days, INH control
Vero cell lines = assay type: cell-based, African green monkey; conditions: read-out: Cytotoxicity (IC50 on Vero cell lines)
Method: chemosensitivity. […]. Thus only viable cells
formazan. Formazan crystals are dissolved in DMSO. The test samples were tested in triplicate on
experiment. […] Emetine was used
as the reference drug in all experiments. The initial concentration of emetine was 100 µg/mL,
lowest being 0.001 µg/mL. […] The
(§1) the cell viability (data not shown).
GraphPad Prism v.4 software.
(§2) expressing the full length hERG channel. Single cell ionic currents were measured in the […]

[4] = test system: Mycobacterium tuberculosis (H37RvMa); test: microbe, parasite or virus in culture; assay type: cell-based; conditions: for MIC99 7H9/ADC: 7H9/ADC medium; for MIC99 GAST/Fe: GAST/Fe medium
physchem = assay type: physicochemical
Method: (§3) The kinetic solubility assay was performed using a miniaturised shake flask method. 10 mM stock […]
(§4) DMSO, and to spike (1:50) duplicate aqueous samples of FaSSIF (simulating fasting state biorelevant media, pH 6.5), with a final DMSO concentration of 2%. After shaking for 2 hours at 25 °C, the solutions were filtered and analysed by means of HPLC,DAD (Agilent 1200 Rapid Resolution HPLC with a diode array detector). Best fit calibration curves were constructed using the calibration standards, which were used to determine the aqueous samples’ solubility.13
(§5) 4.2) Microsomal stability
The metabolic stability assay was performed in duplicate in a 96,well micro titre plate. The test compounds (0.1 µM) were incubated individually in mouse, rat and pooled human liver […]
the cofactor NADPH (1 mM). Reactions were quenched by adding 300 µL of ice cold acetonitrile containing internal standard (carbamazepine, 0.0236 µg/mL). Test compounds in the supernatant were analysed by means of LC,MS/MS (Agilent Rapid Resolution HPLC, AB SCIEX 4000 QTRAP MS) for the disappearance of parent compound. Metabolite searches were not conducted during the metabolic stability assay.14
4.3) Plasma protein binding (PPB) assay
The plasma protein binding assay was performed in a 96,well micro titre plate with pooled human plasma, spiked with test compound (5 µM). An aliquot was immediately removed and quenched using ice cold acetonitrile containing internal standard (carbamazepine, 0.0236 µg/mL), and placed in the freezer. This served as the total concentration sample. After pre,incubation (37 °C for 1 hour) duplicate aliquots of the spiked plasma were transferred to ultra,centrifugation tubes, […]

in vivo = conditions: male, C57/BL6, mouse
in vitro = in vitro ADME; conditions: human, plasma; PPB assay; read-out: free fraction in human plasma
Method: as §3, §4, §5
The metabolic stability assay was performed in duplicate in a 96,well micro titre plate. […]
the cofactor NADPH (1 mM). […] Test compounds in the supernatant were analysed by means of LC,MS/MS (Agilent Rapid Resolution HPLC, AB SCIEX 4000 QTRAP MS) for the disappearance of parent compound. […]
and ultracentrifuged for 4 hours (42000 rpm, 37 °C, Beckman Optima L,80XP). Analyte concentration of all compounds and sample types were determined by means of LC,MS/MS (Agilent Rapid Resolution HPLC, AB SCIEX 4000 QTRAP MS). […]
The lipophilicity assay was performed in triplicate using a shake,flask procedure. […] The samples were analysed by HPLC,DAD (Agilent 1200 Rapid Resolution HPLC with a diode array detector) and the amount of compound in the buffer and n, octanol were used to determine the partition coefficient, LogD7.4.15 […]

mice = test: Toxicity observed in mice on oral dosing; assay type: in vivo; conditions: higher doses
[5] = assay type: in vitro ADME
Method: and ultracentrifuged for 4 hours (42000 rpm, 37 °C, Beckman Optima L,80XP). Analyte concentration of all compounds and sample types were determined by means of LC,MS/MS (Agilent Rapid Resolution HPLC, AB SCIEX 4000 QTRAP MS).
4.4) Lipophilicity (LogD7.4)
The lipophilicity assay was performed in triplicate using a shake,flask procedure. 10 mM stock solutions of each test compound were used to spike (100 µM) a 1:1 mixture of phosphate buffer (pH 7.4) and n,octanol. The solutions were shaken vigorously (1500 rpm) on an orbital shaker for 3 hours at room temperature. Thereafter the samples were centrifuged in order to fully separate the two immiscible fluids. The samples were analysed by HPLC,DAD (Agilent 1200 Rapid Resolution HPLC with a diode array detector) and the amount of compound in the buffer and n, octanol were used to determine the partition coefficient, LogD7.4.15
4.5) Parallel Artificial Membrane Permeability Assay (PAMPA):
The PAMPA assay was performed in triplicate in 96,well MultiScreen Filter plates (Millipore, 0.4 µM PCTE Membrane). Membrane filters were pre,coated with 5% hexadecane in hexane and allowed to dry prior to the assay. Membrane integrity marker, Lucifer yellow was added to the apical wells of the pre,coated MultiScreen plate donor/drug solutions containing test compound.
Phosphate buffer (pH7.4) was added to the 96,well acceptor plate. 10 mM test compound was used to spike (1 µM) the donor buffer at physiologically relevant pH's (pH 4, 6.5 and 8), the donor plate slotted into the acceptor plate and incubated (4 hours at room temperature) with gentle shaking (40,50 rpm). Following the incubation, sample from the acceptor wells and theoretical equilibrium wells were transferred to the analysis plate and matrix matched with blank donor buffer. Acetonitrile containing internal standard (carbamazepine, 0.0236 µg/mL) was added to all samples and they were analysed by LC,MS/MS (Agilent Rapid Resolution HPLC, AB SCIEX 4500 MS). The normalised (analyte/internal) peak areas were used to calculate the apparent permeability (Papp). Membrane integrity was assessed by calculating the Papp of Lucifer Yellow […]
chemosensitivity. […]. Thus only viable cells […]
formazan. Formazan crystals are dissolved in DMSO. The test samples were tested in triplicate on […]
experiment. […] Emetine was used […]
as the reference drug in all experiments. The initial concentration of emetine was 100 µg/mL, […]
lowest being 0.001 µg/mL. […] The […]
as §1
GraphPad Prism v.4 software. […]
as §2

[6] = Caseum binding using surrogate caseum

COc1ccc(NC(=O)c2cc(N(C)Cc3ccccc3)ncn2)cc1 [Compound 1, 6-(Benzyl(methyl)amino)-N-(4-methoxyphenyl)pyrimidine-4-carboxamide]
PrecA-LUX reporter response [1]: delayed (Day 3 onwards) induction of luminescence
Δcyd 7H9 GLU ADC MIC99 [2]: > 20 µM
PiniB-LUX reporter response [3]: did not elicit a positive response; also recorded: no response

N-(4-(4-Acetylpiperazin-1-yl)phenyl)-6-(methyl((6-(trifluoromethyl)pyridin-3-yl)methyl)amino)pyrimidine-4-carboxamide [Compound 44]
IC50 (Vero cell lines): > 50 µM
MIC99 7H9/ADC [4]: 4.7 µM
MIC99 7H9/ADC ([4]; supplementary csv): 4.7 æM
MIC99 GAST/Fe [4]: 2.3 µM
MIC99 GAST/Fe ([4]; supplementary csv): 2.3 æM
MIC ([4]; medium not stated): < 5 µM
solubility kinetic at 2 h (physchem; pH 7.4): <5 µM
Solubility (physchem; supplementary csv): <5 æM

CN(Cc1ccc(C(F)(F)F)nc1)c1cc(C(=O)Nc2nncs2)ncn1 [Compound 52, 6-(Methyl((6-(trifluoromethyl)pyridin-3-yl)methyl)amino)-N-(1,3,4-thiadiazol-2-yl)pyrimidine-4-carboxamide]
AUC(0-inf) at 24 h (in vivo; iv, 5 mg/kg): 35.1 µM·h
clearance at 24 h (in vivo; iv, 5 mg/kg): 6.6 mL/min/kg
AUC(0-inf) at 24 h (in vivo; po, 20 mg/kg): 93.6 µM·h
half-life (in vivo; po, 20 mg/kg): 3 h
fraction unbound at 4 h, 5 µM (in vitro): ≤ 0.3
toxicity to mice (mice): toxic to mice when dosed orally above 50 mg/kg
PAMPA log Papp [5]: –3.9
solubility at 2 h (physchem; pH 6.5, fasted-state simulated intestinal fluid, read-out: FassiF solubility at pH 6.5): > 100 µM
solubility kinetic at 2 h (physchem; pH 7.4, pH 7.4): > 100 µM
caseum distribution unbound [6]: 3.6%
